Consider 1 molecule from publication PMC11234460, “In Silico Discovery of Stapled Peptide Inhibitor Targeting the Nur77‐PPARγ Interaction and Its Anti‐Breast‐Cancer Efficacy” (Advanced Science, 2024).

For data set [1], the system named is MDA-MB-231-GFP xenograft. As to the kind of experiment: MDA-MB-231-GFP orthotopic xenograft tumor model. In kind it is in vivo, mouse. An excerpt: Female BALB/c mice (4–5 weeks old, 16–18 g) and BALB/c mice (7–8 weeks old, 18–20 g) were provided by Shanghai Slake Experimental Animal Co., Ltd., and housed under specific pathogen‐free conditions for use in orthotopic xenograft tumor model experiments and bone metastasis tumor model experiments. The animal experiment was approved by the ethical committee of Shanghai University of Traditional Chinese Medicine (approval number: PZSHUTCM220627036).
(§1) To establish the bone metastasis tumor model, 1×10^5 cells were injected into the left ventricle of each mouse (7–8 weeks old), and surgery was monitored using a cardiac ultrasound instrument. The mice were randomly divided into three groups and treated with PBS (control group, n = 6), 5 mg kg^−1 ST‐CY14 (n = 6), and 10 mg kg^−1 ST‐CY14 (n = 6) Tumor cell metastasis was monitored using an in vivo imaging instrument (IVIS Spectrum, PerkinElmer, USA). by intraperitoneal injection of 20 mg kg^−1 D‐luciferin. The mice were treated with ST‐CY14 via intravenous injection using a 100 µL PBS solution every 2 days starting on the designated day after tumor cell injection. Bone tissue with MDA‐BoM‐1833 cell metastasis was obtained and stained for TRAP. The mice sera were collected and analyzed for BSP and β‐CTx levels using ELISA (Lengton, BPE10823, BPE10438). For the orthotopic xenograft tumor model, 3×10^6 cells were injected into the fourth pair of breast pads on the left side of the mouse (4–5 weeks old). The mice were treated with ST‐CY14 every two days once the tumor volume reached 30–50 mm^3, with the same groups as in the bone metastasis tumor model. The tumors were collected and stained for H&E, Ki‐67, and TUNEL assays, which were conducted by Wuhan Servicebio Technology Co., Ltd. Major organs (heart, liver, spleen, lung, and kidney) were also collected for H&E analysis by Wuhan Servicebio Technology Co., Ltd. The Transcriptome and LC/MS targeted lipid metabolome were sequenced by OE Biotech, Inc., Shanghai, China. […]

Data set [2] relates to MDA-MB-231 cells. In words: Energy metabolism analysis (Seahorse OCR). In kind it is cell-based. Particulars: MDA-MB-231, 24 h treatment, n = 3. How it is done:
Cell energy metabolism analysis was conducted using a Seahorse cell energy metabolism analyzer (Agilent, USA). In brief, 8000 cells were seeded per well in a 96‐well XF96 plate (Agilent, 103794‐100) and cultured overnight. Subsequently, the cells were treated with various concentrations of peptides for 24 h. To prepare for metabolic stress injections, cartridge plates (Agilent, w15023) were hydrated with H2O for at least 12 h at 37 °C before the assay. 1 h before detection, the medium in each well was replaced with 180 µL XF calibrant solution (Agilent, 100840‐000), Afterward, the cell plate was replaced with 180 µL XF DMEM (Agilent, 103575‐100) with glucose (1 × 10^−2 M) (Agilent, 103577‐100), pyruvate (1 × 10^−3 M) (Agilent, 103578‐100) and glutamine (2 × 10^−3 M) (Agilent, 103579‐100) and the mixture was incubated in a CO2‐free incubator at 37 °C for 1 h. Then, 20 µL basic medium, 22 µL 1.5 × 10^−4 M oligomycin, 25 µL 1.5 × 10^−4 M FCCP, and 27 µL 5 × 10^−5 M ROT/AA (Agilent, 10315‐100) were added to wells A, B, C, and D, respectively, of the cartridge plates. The assay was carried out according to the manufacturer's instructions, and the OCR was reported in picomoles per min. The results were normalized to the cell number determined by the CCK‐8 assay.

Data set [3] has as its system MCF-10A cells. The settings on record: 24 h, CCK-8.
Method: MCF7, MDA‐MB‐231, and MDA‐BoM‐1833 cells (5000 cells/well) were seeded in 96‐well plates and cultured overnight at 37°C and 5% CO2. The cells were then treated with fresh basic medium containing various concentrations (1/2/5/10/20 × 10^−6 M) of compounds. After 24 h of incubation, the cells were incubated with a basic medium containing 10% Cell Counting Kit‐8 (Dojindo, CK‐04) for 2 h. Cell viability was evaluated by measuring the absorbance at 450 nm. The formula used was [(As‐Ab)/(Ac‐Ab)] × 100%, where as represents the absorbance of the drug‐treated group, Ac represents the absorbance of the control group treated with medium, and Ab represents the absorbance of the blank control containing only medium.
In data set [4] the test system is Nur77-knockdown MCF7 and MDA-MB-231 cells. As to the kind of experiment: Cell viability assay (CCK-8), Nur77-knockdown breast tumor cells. In kind it is cell-based. The settings on record: Nur77-knockdown MCF7 and MDA-MB-231, 24 h. Here is the method:
Cells were seeded 24 h prior to transfection. Transfection was performed with Transfect‐Mate (GenePharma, G04009) according to the manufacturer's protocols. To transfect siRNA into cells seeded on 6 well cell culture plates, 150 pmol of siRNA was mixed with 8 µL Transfect‐Mate, incubated at room temperature for 15 min, and then added to the cells. The medium was changed to DMEM after 6 h of culture, and the cells were incubated at 37 °C in a 5% CO2 incubator. 48 h later, the siRNA was successfully expressed and could be used for further experiments. The siRNAs used were listed in Table S1 (Supporting Information).

In data set [5] the test system is MDA-MB-231-GFP tumor tissue. In words: LC/MS targeted lipid metabolome of xenograft tumor tissue. Format: in vivo, mouse. The settings on record: compared with the control group. Here is the method:
as §1, with “model.” for “model. The tumors were collected and stained for H&E, Ki‐67, and TUNEL assays, which were conducted by Wuhan Servicebio Technology Co., Ltd. Major organs (heart, liver, spleen, lung, and kidney) were also collected for H&E analysis by Wuhan Servicebio Technology Co., Ltd. The Transcriptome and LC/MS targeted lipid metabolome were sequenced by OE Biotech, Inc., Shanghai, China.”

Data set [6] deals with MCF7 cells. In words: qPCR of CD36 and FABP4. Format: cell-based, human. The settings on record: n = 3. (In general: Real-time PCR tracks product formation cycle by cycle.)
Data set [7] deals with MDA-MB-231 cells. In words: qPCR of CD36 and FABP4. In kind it is cell-based. Particulars: n = 3.
The target in data set [8] is T1, Nur77-PPARγ complex (Homo sapiens, UniProt P22736).
T1 construct: expressed in transfected cells; host or cells: HEK293T
T1 sequence (P22736 whole entry, one chain of several): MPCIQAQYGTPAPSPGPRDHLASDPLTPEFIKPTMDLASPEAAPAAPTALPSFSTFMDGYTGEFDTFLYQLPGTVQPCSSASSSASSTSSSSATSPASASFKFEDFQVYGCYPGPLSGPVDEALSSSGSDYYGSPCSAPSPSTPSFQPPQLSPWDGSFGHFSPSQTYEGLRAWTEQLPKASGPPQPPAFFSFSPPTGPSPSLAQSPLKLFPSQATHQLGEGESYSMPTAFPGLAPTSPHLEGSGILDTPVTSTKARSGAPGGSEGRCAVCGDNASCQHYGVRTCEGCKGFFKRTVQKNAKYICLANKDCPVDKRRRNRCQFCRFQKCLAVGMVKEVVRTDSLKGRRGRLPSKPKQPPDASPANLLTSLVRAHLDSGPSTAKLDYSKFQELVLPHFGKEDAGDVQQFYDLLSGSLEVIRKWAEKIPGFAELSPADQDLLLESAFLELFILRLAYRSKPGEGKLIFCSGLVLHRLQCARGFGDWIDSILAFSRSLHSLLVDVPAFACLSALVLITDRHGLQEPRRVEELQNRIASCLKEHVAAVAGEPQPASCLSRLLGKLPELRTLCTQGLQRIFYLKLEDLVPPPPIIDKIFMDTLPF
In words: NanoBiT assay of Nur77-PPARγ complex formation in HEK293T cells. In kind it is cell-based. The settings on record: 1 × 10^−5 M peptide, 1 h, n = 3. How it is done: HEK293T cells were seeded in a poly‐d‐lysine‐coated black 96‐well cell culture plate at 10 000 cells per well in 100 µL culture medium. The next day, the master mix of 100 ng receptor construct containing the PPARγ‐LargeBit and SmallBit‐Nur77 plasmids (w/w, 50 ng:50 ng) was diluted in Opti‐MEM Medium (Gibco, 11058‐021), then P3000 Reagent was added. Meanwhile, 0.15 µL Lipofectamine 3000 reagent (ThermoFisher, L3000015) was added to 5 µL Opti‐MEM Medium. Subsequently, diluted DNA was added to Lipofectamine 3000 reagent (V/V, 1:1) and incubated for 15 min at room temperature. A mixture containing the above plasmids and Lipofectamine 3000 was prepared and added to each well. After 24 h, the cells were treated with 1 × 10^−5 M peptides (TAT, T‐CY14, S‐CY14, and ST‐CY14) or variable concentrations of ST‐CY‐14 (0.1/0.2/0.5/1/2/5/10/20/40 × 10^−6 M) for 1 h. The culture medium was replaced with 90 µL Tyrode's solution (Solarbio, T1420). Then, 10 µL furimazine (5 × 10^−5 M) was added to each well and the luminescence signal was measured every 86 s for 1 h at 37 °C.

Where a SMILES comes first, the peptide text is derived from it. Bridges are numbered along the chain shown (N, C = ends). [ ]: non-standard residue; d: D form. S5 = C=CCCC[C@](C)(N)C(=O)O

Turning to `C[C@@H](O)[C@@H]1NC(=O)[C@H](CCCNC(=N)N)NC(=O)[C@H](CCCNC(=N)N)NC(=O)[C@@](C)(NC(=O)[C@H](Cc2ccccc2)NC(=O)CNC(=O)[C@H](CCCCN)NC(=O)[C@H](CS)NC(=O)CNC(=O)[C@H](CCC(=O)O)NC(=O)[C@@H](N)CS)CCCC=CCCC[C@@](C)(C(=O)N[C@@H](CCCNC(=N)N)C(=O)N[C@@H](Cc2ccc(O)cc2)C(=O)N[C@@H](Cc2ccc(O)cc2)C(=O)NCC(=O)N[C@@H](CCCNC(=N)N)C(=O)N[C@@H](CCCCN)C(=O)N[C@@H](CCCCN)C(=O)N[C@@H](CCCNC(=N)N)C(=O)N[C@@H](CCCNC(=N)N)C(=O)N[C@@H](CCC(N)=O)C(=O)N[C@@H](CCCNC(=N)N)C(=O)N[C@@H](CCCNC(=N)N)C(=O)N[C@@H](CCCNC(=N)N)C(N)=O)NC1=O` [ST-CY14] (H-CEGCKGF[S5]RRT[S5]RYYGRKKRRQRRR-NH2; staple 8-12), the “Body weight loss and signs of organ toxicity” value in data set [1] (5 and 10 mg kg^−1, tail vein, once every two days, thirty days, H&E of major organs) was “without significant body weight loss (Figure 6c) or other signs of organ toxicity”. The “Nur77, CD36 and FABP4 protein levels in tumors (Western blot)” value in data set [1] (MDA-MB-231-GFP tumors) is “effectively increased Nur77 protein levels, and decreased CD36 and FABP4 protein levels”. Moreover, in data set [1] (compared with the control group, n = 3), the “Ki-67, H&E and TUNEL analysis of tumor sections” value was “reduced tumor cell proliferation, increased necrosis area and apoptosis”. Besides, the “Oxygen consumption rate (OCR)” value in data set [2] was “significantly reduced”. Also, the “Sensitivity of normal breast cells” value in data set [3] is “less sensitive to ST‐CY14”. Further, the “Sensitivity of Nur77-knockdown breast tumor cells” value in data set [4] was “less sensitive to ST‐CY14”. In addition, the “Relative abundance of lipid content (FA, PC, TAG, PE) in tumor tissue” value in data set [5] is given as “decreased”. Further, the “CD36 and FABP4 transcription (qPCR)” value in data set [6] was “dose‐dependently inhibited CD36 and FABP4 expression at the transcriptional level”; in data set [7], “dose‐dependently inhibited CD36 and FABP4 expression at the transcriptional level”. Further, in data set [8], the “Effect on NanoBiT luminescence (Nur77-PPARγ complex)” value is reported as “effectively inhibited the formation of the Nur77‐PPARγ complex”.
